The values below are quoted from earlier work in US20240238347A1, “PHOTORECEPTOR CELLS FOR RETINAL AND MACULAR REPAIR” (The Johns Hopkins University, priority 2021, published 2024).

Series [1] concerns ESC- and iPSC-derived organoids.
The subject of a further series is Thrβ mutant organoids. As to conditions: Thrβ KO+T3; early T3 addition.
The test system of series [2] is WERI-Rb1 retinoblastoma cells. As to conditions: retinoblastoma cell line treated with T3.
Where [3] appears, read: wild type+T3, 20 nM T3 starting from days 20 to 50 until day 200 of differentiation.
Setting [4] is: 'Early RA': 1.0 μM RA from days 43 to 130.
The mark [5] stands for this setting: 'Late RA': 1.0 μM RA from days 130 to 200.

Where two headings read alike, the source gives them in different places.

Take `N[C@@H](Cc1cc(I)c(Oc2ccc(O)c(I)c2)c(I)c1)C(=O)O` [T3, triiodothyronine]: in series [1] (early T3 addition in organoids), the cone density entry is on record as “dramatically increased cone density”. For the same compound, in series [1] (setting [3]), the “L/M cones (L/M-opsin expressing), share of cones” value is on record as 96% and the “S cones (S-opsin expressing), share of cones” value is on record as 4%. Further, in the series on Thrβ mutant organoids, the “L/M cones, share of cones” value is reported as 0% and the “S cones, share of cones” value is recorded as 100%. The L/M-opsin expression result in series [2] is recorded as “expresses L/M-opsin”.

With `CC1=C(/C=C/C(C)=C/C=C/C(C)=C/C(=O)O)C(C)(C)CCC1` [RA, all-trans retinoic acid], in the series on human retinal organoids (setting [4]), the “L cones at day 200” value is given as 1.65%, the “M cones at day 200” value is 98.35% and the “co-expressing cones at day 200” value is given as 0%. In the series with human retinal organoids (setting [5]), the “L cones at day 200” value is on record as 92.56%, the “M cones at day 200” value was 6.35% and the “co-expressing cones at day 200” value was 1.10%. The “M-opsin and L-opsin expression (RNA-seq)” value in the series on human retinal organoids (ESC-derived organoids grown in 'Early RA' conditions) is “high M-opsin and minimal L-opsin expression”. In addition, the “overall M/L cone densities at day 200” value in the series on human retinal organoids (across experimental conditions (No RA, Early RA, Late RA)) was “no significant differences”. Moreover, the “M-opsin expression (previously published RNA-seq data)” value with human retinal organoids (iPSC-derived organoids grown in 'Early RA' conditions) is reported as “near exclusive expression of M-opsin”. Also, the “organoid differentiation / M or L cone yield” value in the series with human retinal organoids (supplemental RA throughout development (N=6)) is “failed to differentiate, yielding minimal M or L cones”.
